Results: US20250255867A1 (Kadmon Corporation, LLC, priority 2022, published 2025)

Test system: patients with cGVHD
Assay: Example 1: pulmonary function (percent predicted FEV1, FVC, DLco, TLC, RV) change from baseline
Assay type: in vivo, human
Protocol: Change From Baseline in Percent Predicted Forced Expiratory Volume in 1 Second (FEV1) at Each Specified Time Points. FEV1 was the volume of air exhaled from the lungs in the first second of a forced expiration as measured by spirometer. Baseline value was defined as valid and last non-missing value obtained within 28 days prior to participant receiving first study medication. EOT visit was performed within 3 days after the participant's last dose of study drug. […] Analysis was performed on mITT population. Here, ‘number analyzed’=participants with available data for each specified category. Here, ‘0’ in the number analyzed field signifies that none of the participants were available for the analysis at the specified time points.
Change From Baseline in Percent Predicted Forced Vital Capacity (FVC) at Each Specified Time Points. FVC was the total amount of air (in liters) exhaled from the lungs during the lung function test measured by spirometer which assessed the change in lung function related to the disease status. Baseline value was defined as valid and last non-missing value obtained within 28 days prior to participant receiving first study medication. EOT visit was performed within 3 days after the participant's last dose of study drug. […] Analysis was performed on mITT population. Here, ‘number analyzed’=participants with available data for each specified category. Here, ‘0’ in the number analyzed field signifies that none of the participants were available for the analysis at the specified time points.
Change From Baseline in Percent Predicted Hemoglobin (HGB) Corrected Diffusing Capacity of Lung for Carbon Monoxide (DLco) at Each Specified Time Points. DLco is a measurement of the ability of the lungs to transfer gases from the air to the blood. Change from baseline in diffusing capacity of the lung for carbon monoxide (percent predicted hemoglobin level corrected) was reported for this measure. Baseline value was defined as valid and last non-missing value obtained within 28 days prior to participant receiving first study medication. EOT visit was performed within 3 days after the participant's last dose of study drug. […] Analysis was performed on mITT population. Here, ‘number analyzed’=participants with available data for each specified category. Here, ‘0’ in the number analyzed field signifies that none of the participants were available for the analysis at the specified time points.
Change From Baseline in Percent Predicted Total Lung Capacity (TLC) at Each Specified Time Points. TLC is the volume of air in the lungs upon the maximum effort of inspiration. Baseline value was defined as valid and last non-missing value obtained within 28 days prior to participant receiving first study medication. EOT visit was performed within 3 days after the participant's last dose of study drug. […] Analysis was performed on mITT population. Here, ‘number analyzed’=participants with available data for each specified category.

`CC(C)NC(=O)COc1cccc(-c2nc(Nc3ccc4[nH]ncc4c3)c3ccccc3n2)c1` [Belumosudil, 2-{3-[4-(1H-indazol-5-ylamino)-2-quinazolinyl]phenoxy}-N-(propan-2-yl) acetamide] was tested, and the “Change From Baseline in Percent Predicted Residual Volume (RV), Mean (Standard Deviation)” value (Cohort 2: 200 mg BID, Cycle 13, Day 1, n=4) was −27.0 (35.6) percent predicted RV, the “Change From Baseline in Percent Predicted Residual Volume (RV), Mean (Standard Deviation)” value (Cohort 2: 200 mg BID, Cycle 14, Day 1, n=1) was −31.0 (—) percent predicted RV and the “Change From Baseline in Percent Predicted Residual Volume (RV), Mean (Standard Deviation)” value (Cohort 2: 200 mg BID, Cycle 15, Day 1, n=3) was −0.7 (18.1) percent predicted RV. The “Change From Baseline in Percent Predicted Residual Volume (RV), Mean (Standard Deviation)” value (Cohort 2: 200 mg BID, Cycle 16, Day 1, n=2) was −36.5 (13.4) percent predicted RV, the “Change From Baseline in Percent Predicted Residual Volume (RV), Mean (Standard Deviation)” value (Cohort 2: 200 mg BID, Cycle 17, Day 1, n=3) was −47.3 (25.1) percent predicted RV and the “Change From Baseline in Percent Predicted Residual Volume (RV), Mean (Standard Deviation)” value (Cohort 2: 200 mg BID, Cycle 18, Day 1, n=2) was −42.0 (0.0) percent predicted RV. For the same compound, the “Change From Baseline in Percent Predicted Residual Volume (RV), Mean (Standard Deviation)” value (Cohort 2: 200 mg BID, Cycle 19, Day 1, n=3) was −19.7 (18.0) percent predicted RV, the “Change From Baseline in Percent Predicted Residual Volume (RV), Mean (Standard Deviation)” value (Cohort 2: 200 mg BID, Cycle 20, Day 1, n=2) was −7.5 (37.5) percent predicted RV and the “Change From Baseline in Percent Predicted Residual Volume (RV), Mean (Standard Deviation)” value (Cohort 2: 200 mg BID, Cycle 21, Day 1, n=1) was −44.0 (—) percent predicted RV. The “Change From Baseline in Percent Predicted Residual Volume (RV), Mean (Standard Deviation)” value (Cohort 2: 200 mg BID, Cycle 22, Day 1, n=2) was −33.0 (19.8) percent predicted RV, the “Change From Baseline in Percent Predicted Residual Volume (RV), Mean (Standard Deviation)” value (Cohort 2: 200 mg BID, Cycle 23, Day 1, n=1) was −72.0 (—) percent predicted RV and the “Change From Baseline in Percent Predicted Residual Volume (RV), Mean (Standard Deviation)” value (Cohort 2: 200 mg BID, Cycle 24, Day 1, n=1) was −17.0 (—) percent predicted RV. The “Change From Baseline in Percent Predicted Residual Volume (RV), Mean (Standard Deviation)” value (Cohort 2: 200 mg BID, Cycle 25, Day 1, n=2) was −34.0 (31.1) percent predicted RV, the “Change From Baseline in Percent Predicted Residual Volume (RV), Mean (Standard Deviation)” value (Cohort 2: 200 mg BID, Cycle 27, Day 1, n=2) was −39.5 (20.5) percent predicted RV and the “Change From Baseline in Percent Predicted Residual Volume (RV), Mean (Standard Deviation)” value (Cohort 2: 200 mg BID, Cycle 29, Day 1, n=1) was −13.0 (—) percent predicted RV. The “Change From Baseline in Percent Predicted Residual Volume (RV), Mean (Standard Deviation)” value (Cohort 2: 200 mg BID, Cycle 37, Day 1, n=1) was −70.0 (—) percent predicted RV, the “Change From Baseline in Percent Predicted Residual Volume (RV), Mean (Standard Deviation)” value (Cohort 2: 200 mg BID, Cycle 39, Day 1, n=2) was −43.0 (42.4) percent predicted RV and the “Change From Baseline in Percent Predicted Residual Volume (RV), Mean (Standard Deviation)” value (Cohort 2: 200 mg BID, Cycle 43, Day 1, n=1) was −26.0 (—) percent predicted RV. For the same compound, the “Change From Baseline in Percent Predicted Residual Volume (RV), Mean (Standard Deviation)” value (Cohort 2: 200 mg BID, EOT, n=8) was 10.6 (34.9) percent predicted RV, the “Change From Baseline in Percent Predicted Residual Volume (RV), Mean (Standard Deviation)” value (Cohort 3: 400 mg QD, Cycle 2, Day 1, n=4) was −18.0 (30.1) percent predicted RV and the “Change From Baseline in Percent Predicted Residual Volume (RV), Mean (Standard Deviation)” value (Cohort 3: 400 mg QD, Cycle 3, Day 1, n=12) was 9.0 (34.4) percent predicted RV. The “Change From Baseline in Percent Predicted Residual Volume (RV), Mean (Standard Deviation)” value (Cohort 3: 400 mg QD, Cycle 4, Day 1, n=6) was 17.8 (29.0) percent predicted RV, the “Change From Baseline in Percent Predicted Residual Volume (RV), Mean (Standard Deviation)” value (Cohort 3: 400 mg QD, Cycle 5, Day 1, n=10) was −3.7 (29.8) percent predicted RV and the “Change From Baseline in Percent Predicted Residual Volume (RV), Mean (Standard Deviation)” value (Cohort 3: 400 mg QD, Cycle 6, Day 1, n=7) was −10.9 (37.5) percent predicted RV. For the same compound, the “Change From Baseline in Percent Predicted Residual Volume (RV), Mean (Standard Deviation)” value (Cohort 3: 400 mg QD, Cycle 7, Day 1, n=12) was −7.5 (33.0) percent predicted RV, the “Change From Baseline in Percent Predicted Residual Volume (RV), Mean (Standard Deviation)” value (Cohort 3: 400 mg QD, Cycle 8, Day 1, n=6) was 2.5 (39.7) percent predicted RV and the “Change From Baseline in Percent Predicted Residual Volume (RV), Mean (Standard Deviation)” value (Cohort 3: 400 mg QD, Cycle 9, Day 1, n=10) was 0.1 (35.6) percent predicted RV. For the same compound, the “Change From Baseline in Percent Predicted Residual Volume (RV), Mean (Standard Deviation)” value (Cohort 3: 400 mg QD, Cycle 10, Day 1, n=5) was 1.4 (38.2) percent predicted RV, the “Change From Baseline in Percent Predicted Residual Volume (RV), Mean (Standard Deviation)” value (Cohort 3: 400 mg QD, Cycle 11, Day 1, n=8) was 5.4 (38.0) percent predicted RV and the “Change From Baseline in Percent Predicted Residual Volume (RV), Mean (Standard Deviation)” value (Cohort 3: 400 mg QD, Cycle 12, Day 1, n=6) was −22.2 (49.9) percent predicted RV. For the same compound, the “Change From Baseline in Percent Predicted Residual Volume (RV), Mean (Standard Deviation)” value (Cohort 3: 400 mg QD, Cycle 13, Day 1, n=8) was 0.3 (32.6) percent predicted RV, the “Change From Baseline in Percent Predicted Residual Volume (RV), Mean (Standard Deviation)” value (Cohort 3: 400 mg QD, Cycle 14, Day 1, n=6) was −6.5 (36.3) percent predicted RV and the “Change From Baseline in Percent Predicted Residual Volume (RV), Mean (Standard Deviation)” value (Cohort 3: 400 mg QD, Cycle 15, Day 1, n=7) was −16.7 (22.3) percent predicted RV. For the same compound, the “Change From Baseline in Percent Predicted Residual Volume (RV), Mean (Standard Deviation)” value (Cohort 3: 400 mg QD, Cycle 16, Day 1, n=4) was −27.5 (31.9) percent predicted RV, the “Change From Baseline in Percent Predicted Residual Volume (RV), Mean (Standard Deviation)” value (Cohort 3: 400 mg QD, Cycle 17, Day 1, n=7) was −39.1 (26.2) percent predicted RV and the “Change From Baseline in Percent Predicted Residual Volume (RV), Mean (Standard Deviation)” value (Cohort 3: 400 mg QD, Cycle 18, Day 1, n=3) was −7.3 (33.7) percent predicted RV. For the same compound, the “Change From Baseline in Percent Predicted Residual Volume (RV), Mean (Standard Deviation)” value (Cohort 3: 400 mg QD, Cycle 19, Day 1, n=4) was −23.5 (18.7) percent predicted RV, the “Change From Baseline in Percent Predicted Residual Volume (RV), Mean (Standard Deviation)” value (Cohort 3: 400 mg QD, Cycle 20, Day 1, n=3) was −22.0 (44.3) percent predicted RV and the “Change From Baseline in Percent Predicted Residual Volume (RV), Mean (Standard Deviation)” value (Cohort 3: 400 mg QD, Cycle 21, Day 1, n=5) was −30.2 (51.2) percent predicted RV. The “Change From Baseline in Percent Predicted Residual Volume (RV), Mean (Standard Deviation)” value (Cohort 3: 400 mg QD, Cycle 22, Day 1, n=2) was −41.0 (46.7) percent predicted RV, the “Change From Baseline in Percent Predicted Residual Volume (RV), Mean (Standard Deviation)” value (Cohort 3: 400 mg QD, Cycle 23, Day 1, n=4) was 1.5 (44.8) percent predicted RV and the “Change From Baseline in Percent Predicted Residual Volume (RV), Mean (Standard Deviation)” value (Cohort 3: 400 mg QD, Cycle 24, Day 1, n=1) was −78.0 (—) percent predicted RV. For the same compound, the “Change From Baseline in Percent Predicted Residual Volume (RV), Mean (Standard Deviation)” value (Cohort 3: 400 mg QD, Cycle 25, Day 1, n=3) was −23.3 (56.0) percent predicted RV, the “Change From Baseline in Percent Predicted Residual Volume (RV), Mean (Standard Deviation)” value (Cohort 3: 400 mg QD, Cycle 27, Day 1, n=2) was −41.0 (28.3) percent predicted RV and the “Change From Baseline in Percent Predicted Residual Volume (RV), Mean (Standard Deviation)” value (Cohort 3: 400 mg QD, Cycle 29, Day 1, n=2) was 17.5 (40.3) percent predicted RV. The “Change From Baseline in Percent Predicted Residual Volume (RV), Mean (Standard Deviation)” value (Cohort 3: 400 mg QD, Cycle 39, Day 1, n=1) was 81.0 (—) percent predicted RV, the “Change From Baseline in Percent Predicted Residual Volume (RV), Mean (Standard Deviation)” value (Cohort 3: 400 mg QD, Cycle 43, Day 1, n=1) was 75.0 (—) percent predicted RV and the “Change From Baseline in Percent Predicted Residual Volume (RV), Mean (Standard Deviation)” value (Cohort 3: 400 mg QD, Cycle 47, Day 1, n=1) was 87.0 (—) percent predicted RV. For the same compound, the “Change From Baseline in Percent Predicted Residual Volume (RV), Mean (Standard Deviation)” value (Cohort 3: 400 mg QD, Cycle 49, Day 1, n=1) was −5.0 (—) percent predicted RV and the “Change From Baseline in Percent Predicted Residual Volume (RV), Mean (Standard Deviation)” value (Cohort 3: 400 mg QD, EOT, n=8) was −18.5 (32.6) percent predicted RV.
